Laboratory results published in paper PMC9407656 (Proceedings of the National Academy of Sciences of the …, 2022).
“And” between values parts separate entries of the source, which are not always exact repeats. Equal values may be shown once. Read-outs that look alike come from different tables or passages of the source.

Assays:
B. malayi = settings: cited from earlier work; for gradual recovery from the paralytic effects: treated worms
adult B. malayi worms = assay: Adult B. malayi worm motility; type: cell-based, Brugia malayi; settings: for pIC50, inhibition of motility / IC50: 24 h exposure; for IC50: read-out: IC50, inhibition of motility; for recovery from the motility paralysis: treated adult worms
[1] = tested on: C. oncophora IVS AVR-14/GluClα3; settings: IVM-sensitive strain; SI table ref 5; cited from earlier work
[2] = tested on: C. oncophora IVR AVR-14/GluClα3; settings: IVM-resistant strain; SI table ref 5; cited from earlier work
[3] = tested on: H. contortus AVR-14B/GluClα3B; settings: SI table ref 3, cited from earlier work
B. malayi AVR-14B GluCl = biological target: T1, B. malayi AVR-14B GluCl (Brugia malayi, UniProt A0A0K0J2Q9); assay: Two-electrode voltage-clamp on Xenopus laevis oocytes expressing Bma-AVR-14B; settings: for L-glutamate-mediated current response (mean ± SEM) / activation at 1000 µM / activation at 10000 µM: normalized to 10 mM L-glutamate; for agonist activity (in words): tested at 1 mM; for direct activation as agonist (in words): 0.3 to 100 µM
T1 sequence (A0A0K0J2Q9 19-427): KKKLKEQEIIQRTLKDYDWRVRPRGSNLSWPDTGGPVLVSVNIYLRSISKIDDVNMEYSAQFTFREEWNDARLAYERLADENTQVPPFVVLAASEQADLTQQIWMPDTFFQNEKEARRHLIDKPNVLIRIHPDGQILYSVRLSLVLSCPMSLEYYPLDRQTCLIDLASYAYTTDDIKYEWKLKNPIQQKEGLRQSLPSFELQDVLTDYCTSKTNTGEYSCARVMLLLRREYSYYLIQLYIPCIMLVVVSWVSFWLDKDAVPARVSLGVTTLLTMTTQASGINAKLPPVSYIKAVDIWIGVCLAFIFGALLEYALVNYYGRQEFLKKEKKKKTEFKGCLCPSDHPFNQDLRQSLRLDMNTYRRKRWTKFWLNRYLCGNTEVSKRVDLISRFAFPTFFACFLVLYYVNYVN

[4] = tested on: C. elegans AVR-14B/GluClα3B; settings: cited from earlier work
[5] = tested on: D. immitis AVR-14B/GluClα3B; settings: cited from earlier work
[6] = peak current normalized to 30 mM L-glutamate
[7] = coapplied with 30 mM L-glutamate
[8] = read-out: IC50(female), motility, female B. malayi

CCN(CC)C(=O)N1CCN(C)CC1 [DEC, diethylcarbamazine]
IC50 (B. malayi; read-out: IC50, motility, B. malayi): 4.4 µM | gradual recovery from the paralytic effects (B. malayi): 3 to 4 h

CC[C@H](C)[C@H]1O[C@]2(CC[C@@H]1C)C[C@@H]1C[C@@H](C/C=C(\C)[C@@H](O[C@H]3C[C@H](OC)[C@@H](O[C@H]4C[C@H](OC)[C@@H](O)[C@H](C)O4)[C@H](C)O3)[C@@H](C)/C=C/C=C3\CO[C@@H]4[C@H](O)C(C)=C[C@@H](C(=O)O1)[C@]34O)O2 [IVM, ivermectin]
pIC50, inhibition of motility (adult B. malayi worms; adult female worms): 5.9 ± 0.4 | pIC50, inhibition of motility (adult B. malayi worms; adult male worms): 4.9 ± 0.2 | IC50 (adult B. malayi worms; adult female worms): 1.1 µM | IC50 (adult B. malayi worms; adult male worms): 11.6 µM | recovery from the motility paralysis (adult B. malayi worms): do not show any sign of recovery | EC50 [1]: 0.5 µM | EC50 [2]: 1.3 µM | EC50 ([3]; read-out: estimated EC50): ~0.0001 µM | direct activation of receptor (in words) (B. malayi AVR-14B GluCl; 1 pM IVM): did not activate the Bma-AVR-14B receptor directly | effect on NA-mediated effects (in words) (B. malayi AVR-14B GluCl; 0.1 nM IVM, NA with 30 µM L-glutamate): eliminated the agonist as well as PAM effects of NA | L-glutamate-mediated current response (mean ± SEM) (B. malayi AVR-14B GluCl; 100 µM L-glutamate in the presence of 0.1 nM IVM): 1.3 ± 0.3% | L-glutamate-mediated current response (mean ± SEM) (B. malayi AVR-14B GluCl; 1 mM L-glutamate in the presence of 0.01 nM IVM): 34.2 ± 7.5% | L-glutamate-mediated current response (mean ± SEM) (B. malayi AVR-14B GluCl; 1 mM L-glutamate in the presence of 0.1 nM IVM): 4.0 ± 0.6% | L-glutamate-mediated current response (mean ± SEM) (B. malayi AVR-14B GluCl; 10 mM L-glutamate in the presence of 0.01 nM IVM): 70.3 ± 7.9% | L-glutamate-mediated current response (mean ± SEM) (B. malayi AVR-14B GluCl; 10 mM L-glutamate in the presence of 0.1 nM IVM): 7.7 ± 0.7% | nH (Hill coefficient), direct activation (B. malayi AVR-14B GluCl; [6]): 0.3 ± 0.1 and 0.3 ± 0.2 | pEC50, direct activation (B. malayi AVR-14B GluCl; [6]): 8.7 ± 1.2

N[C@@H](Cn1oc(=O)[nH]c1=O)C(=O)O [quisqualate]
agonist activity (in words) (B. malayi AVR-14B GluCl): failed to induce any measurable channel activity

picrotoxin [PTX]
inhibition of the glutamate response (B. malayi AVR-14B GluCl; 100 µM, 30 mM L-glutamate): failed to completely block | direct activation as agonist (in words) (B. malayi AVR-14B GluCl): failed to produce direct activation | nH, inhibition of L-glutamate-gated current (B. malayi AVR-14B GluCl; [7]): −1.2 ± 0.6 | pIC50, inhibition of L-glutamate-gated current (B. malayi AVR-14B GluCl; [7]): 4.5 ± 0.2 | IC50 (B. malayi AVR-14B GluCl; read-out: IC50, inhibition of L-glutamate-gated current, coapplied with 30 mM L-glutamate): 33.1 µM

NCC(=O)O [Glycine, glycine]
agonist activity (in words) (B. malayi AVR-14B GluCl): inactive

N[C@@H](CC(=O)O)C(=O)O [L-aspartate]
agonist activity (in words) (B. malayi AVR-14B GluCl): failed to induce any measurable channel activity

N[C@@H](CCC(=O)O)C(=O)O [L-glutamate]
EC50 [4]: 2200 µM | EC50 [5]: ~1000 µM | EC50 [1]: 29.7 µM | EC50 [2]: 96.1 µM | EC50 [3]: 27.6 µM | time constant of desensitization (τ) (B. malayi AVR-14B GluCl; 3 µM L-glutamate): 1.3 ± 0.3 s | reversal potential (Erev) of glutamate-gated currents (B. malayi AVR-14B GluCl; 1 mM L-glutamate, −80 to +20 mV): −28.9 ± 2.9 mV | time constant of desensitization (τ) (B. malayi AVR-14B GluCl; 30 mM L-glutamate): 0.6 ± 0.1 s | nH (Hill coefficient), direct activation (B. malayi AVR-14B GluCl; [6]): 0.8 ± 0.3 | activation at 1000 µM (B. malayi AVR-14B GluCl; read-out: L-glutamate-mediated current response (mean ± SEM), 1 mM L-glutamate alone, 0.01 nM IVM experiment): 54.3 ± 9.2% | activation at 1000 µM (B. malayi AVR-14B GluCl; read-out: L-glutamate-mediated current response (mean ± SEM), 1 mM L-glutamate alone, 0.1 nM IVM experiment): 52.8 ± 3.3% | activation at 10000 µM (B. malayi AVR-14B GluCl; read-out: L-glutamate-mediated current response (mean ± SEM), 10 mM L-glutamate alone, 0.01 nM IVM experiment): 100% | activation at 10000 µM (B. malayi AVR-14B GluCl; read-out: L-glutamate-mediated current response (mean ± SEM), 10 mM L-glutamate alone, 0.1 nM IVM experiment): 100%

C/C(=C\C=C\[C@]1(C)[C@@H](O)CC[C@@]2(C)[C@H]1CC[C@H]1Cc3c([nH]c4cc5c(cc34)C3=CC(C)(C)OC(C)(C)[C@H]3C5)[C@@]12C)C(=O)O [NA, Nodulisporic acid]
exposure required to produce a reduction in worm motility similar to IVM (adult B. malayi worms; adult worms): > 3 days | recovery from the motility paralysis (adult B. malayi worms): do not show any sign of recovery | EC50 (B. malayi AVR-14B GluCl; EC50, direct activation (agonist), normalized to 30 mM L-glutamate): 2.7 µM | nH, potentiation (PAM) of L-glutamate response (B. malayi AVR-14B GluCl; in the presence of 30 µM L-glutamate): 0.8 ± 0.4 | increase in the mean AUC response of L-glutamate (B. malayi AVR-14B GluCl; in the presence of NA): approximately sevenfold increase | EC50 (B. malayi AVR-14B GluCl; pEC50, direct activation, peak current normalized to 30 mM L-glutamate): 2.51 µM | nH (Hill coefficient), direct activation (B. malayi AVR-14B GluCl; [6]): 1.6 ± 0.8

NCCCC(=O)O [GABA, γ-amino butyric acid]
agonist activity (in words) (B. malayi AVR-14B GluCl): inactive

c1ccc([C@H]2CN3CCSC3=N2)cc1 [levamisole]
IC50 (B. malayi; [8]): 0.01 µM | gradual recovery from the paralytic effects (B. malayi): 3 to 4 h

CC(C)C[C@H]1C(=O)O[C@H](Cc2ccc(N3CCOCC3)cc2)C(=O)N(C)[C@@H](CC(C)C)C(=O)O[C@H](C)C(=O)N(C)[C@@H](CC(C)C)C(=O)O[C@H](Cc2ccc(N3CCOCC3)cc2)C(=O)N(C)[C@@H](CC(C)C)C(=O)O[C@H](C)C(=O)N1C [emodepside]
IC50 (B. malayi; [8]): 0.801 µM | IC50 (B. malayi; read-out: IC50(male), motility, male B. malayi): 0.176 µM

CN[C@H](CC(=O)O)C(=O)O [NMDA, N-methyl-D-aspartic acid]
agonist activity (in words) (B. malayi AVR-14B GluCl): failed to induce any measurable channel activity

C=C(C)[C@H]1CN[C@H](C(=O)O)[C@H]1CC(=O)O [kainate]
agonist activity (in words) (B. malayi AVR-14B GluCl): failed to induce any measurable channel activity

N[C@H](C(=O)O)c1cc(O)no1 [ibotenate]
normalized current response to agonist (mean ± SEM) (B. malayi AVR-14B GluCl; agonist 1 mM, normalized to 1 mM L-glutamate response): 73.4 ± 2.5%

Cc1onc(O)c1CC(N)C(=O)O (stereo not drawn) [AMPA, α-amino-3-hydroxy-5-methyl-4-isoxazolepropionic acid]
agonist activity (in words) (B. malayi AVR-14B GluCl): failed to induce any measurable channel activity

N#Cc1nn(-c2c(Cl)cc(C(F)(F)F)cc2Cl)c(N)c1[S+]([O-])C(F)(F)F (stereo not shown) [FIP, fipronil]
direct activation as agonist (in words) (B. malayi AVR-14B GluCl): failed to produce direct activation | IC50 (B. malayi AVR-14B GluCl; IC50, inhibition of L-glutamate-gated current, coapplied with 30 mM L-glutamate): 1.8 µM | nH, inhibition of L-glutamate-gated current (B. malayi AVR-14B GluCl; [7]): −1.3 ± 0.4 | IC50 (B. malayi AVR-14B GluCl; pIC50, inhibition of L-glutamate-gated current, coapplied with 30 mM L-glutamate): 2 µM | inhibition at 100 µM (B. malayi AVR-14B GluCl; read-out: inhibition of the glutamate response): ~95%
